Assay results as given in publication PMC4388811, “Co-Solvents as Stabilizing Agents during Heterologous Overexpression in Escherichia coli – Application to Chlamydial Penicillin-Binding Protein 6” (PLoS ONE, 2015).

Target: T1, PBP6Cp (Chlamydia pneumoniae, UniProt A0A0F7X2J0)
T1 construct: native N-terminal signal peptide and C-terminal transmembrane domain removed; OmpA leader (cleaved by E. coli signal peptidase I); C-terminal Strep tag kept; periplasmic expression in E. coli C43(DE3) with betaine
Experiment: TLC of lipid II DD-carboxypeptidase reaction
Format: biochemical
Details: lipid II substrate; 50 mM MES pH 5.5, 2 mM MgCl2, 20% DMSO, 37 C, 4 h; inhibitor concentration not given; active-site serine acylation (covalent) described as general beta-lactam mechanism

## CC1(C)S[C@@H]2[C@H](NC(=O)Cc3ccccc3)C(=O)N2[C@H]1C(=O)O [penicillin G]
  TLC of lipid II DD-carboxypeptidase reaction: DD-carboxypeptidase activity of wild type PBP6Cp was stalled in the presence of penicillin G
